Experimental findings from patent US20220275329A1, “COMPOSITIONS AND METHODS FOR MATURING STEM CELL-DERIVED BETA CELLS” (President and Fellows of Harvard College, priority 2019, published 2022) are described below.

Assay [1] has as its system mTORC1. Put plainly: p-S6 FACS staining of beta cells in isolated human islets (mTORC1 activation). The conditions noted are these: for effect on mTORC1 activity (p-S6) in mature beta cells: human islets, 30 minute incubation in RPMI. In kind it is cell-based. The text has this:
Insulin-expressing beta cells appear around embryonic day 13.5 (E13.5) in mice and week 8 and 9 post-conception in humans (Pan and Wright, 2011; Slack, 1995), but glucose-stimulated insulin secretion (GSIS) has been observed only days after birth (Blum et al., 2012). Since a major change from embryonic to postnatal physiology is nutrient consumption, it was predicted that nutrients and nutrient sensing by mTORC1 could have a role in the transition from immature to mature insulin secretion by beta cells. To explore that, the nutrient sensitivity and dynamics of mTORC1 in isolated mature human and mouse islets was first examined.
(§1) Differentiated cell clusters or islets were dispersed into single-cell suspension by incubation in TrypLE Express (Invitrogen) at 37° C. until clusters dissociated to single cells upon mixing by pipetting gently up and down (typically 10-15 min). Cells were spun down for 3 min at 1000 rpm, washed once in PBS (1 mL) and transferred to a 1.7 ml microcentrifuge tube (Bioscience; 11510). Cells were resuspended in perm/fix solution and incubated for 10 min (BD 554714). Cells were then washed once in perm/wash for 15 min (BD 554714).
Cells were then resuspended in perm/wash with primary antibodies and incubated at 4° C. overnight. Primary antibodies, diluted 1:300 unless otherwise noted: Mouse anti-Nkx6.1, rat anti-insulin (pro-)IC-peptide, mouse anti-glucagon, rabbit anti-phospho-S6 Ribosomal Protein (Ser240/244). Cells were washed twice in blocking buffer and then incubated in perm/wash buffer with secondary antibodies for 2 hr (protected from light). Secondary antibodies conjugated to Alexa Fluor 405, 488 or 647 (Life Technologies) were used to visualize primary antibodies. Cells were then washed 3 times in perm/wash solution and finally resuspended in 500-700 μl, filtered through a 40 μm nylon mash into flow cytometry tubes (BD Falcon; 352235), and analyzed using the LSR-II flow cytometer (BD Biosciences) with at least 30,000 events recorded. Analysis of the results was performed using FlowJo software. […]

The test system of assay [2] is mTORC1. Put plainly: p-S6 FACS staining of beta cells in isolated mouse islets (mTORC1 activation). Type of assay: cell-based. Here is the method:
as §1
Cells were then resuspended in perm/wash with primary antibodies and incubated at 4° C. overnight. Primary antibodies, diluted 1:300 unless otherwise noted: Mouse anti-Nkx6.1, rat anti-insulin (pro-)IC-peptide, mouse anti-glucagon, rabbit anti-phospho-S6 Ribosomal Protein (Ser240/244). […] Cells were then washed 3 times in perm/wash solution and finally resuspended in 500-700 μl, filtered through a 40 μm nylon mash into flow cytometry tubes (BD Falcon; 352235), and analyzed using the LSR-II flow cytometer (BD Biosciences) with at least 30,000 events recorded. […]
For flow cytometry, mouse islets were dissociated into a single-cell suspension with trypsin/EDTA treatment for 5 minutes at 37° C., followed by treatment with a cell fixation and permeabilization solution (BD Pharmingen). Stained cells were analyzed on a MACSQuant Analyzer (DAKO). […]

Assay [3] relates to SC-beta cells. Put plainly: Glucose stimulated insulin secretion (GSIS) assay of SC-beta cells. Type of assay: cell-based, human. The procedure:
(§2) The hPSC line HUES8 (NIH human embryonic stem cell registry #0021) was used for all experiments. Undifferentiated HUES8 cells were maintained in supplemented mTeSR1 medium (StemCell Technologies) in 500 ml spinner flasks (Coming) set at a 70 rpm rotation rate in a 37° C. 5% CO2 incubator. Directed differentiation into SC-β cells was conducted as described previously with minor modifications. Briefly, 150 million cells were seeded in 300 ml mTeSR1 +10 μM ROCK Inhibitor Y27632, fed with mTeSR1 48 h later, and 72 h later stepwise differentiation stages were induced by the following treatments: DE stage: 24 h in S1 medium +100 ng/ml ActivinA +[…] CHIR99021, followed by 48 h in the same medium without CHIR99021. PGT stage: 72 h in S2 medium +50 ng/ml KGF. PP1 stage: 24 h in S3 medium +50 ng/ml KGF +0.25 μM Sant1 +2 μM Retinoic acid (RA) +500 nM PDBU +10 μM Y27632 +200 nM LDN193189, followed by 24 h in the same medium without LDN193189. PP2 stage: 6 days in S3 medium +50 ng/ml KGF +0.25 uM Sant1 +0.1 μM Retinoic acid (RA) +10 μM Y27632 +5 ng/ml ActivinA. […]
Islets were isolated from whole pancreata using Collagenase P (Roche) injected to the pancreatic duct followed by Histopaque gradient (Sigma). […] Insulin levels were measured by ELISA (Alpco). […] Normalization was done to β-cell number in each sample (pooled from 4 or more mice) scored by FACS following staining for insulin.

The subject of assay [4] is mTORC1. Nature of the assay: p-S6 staining of SC-beta cells (mTORC1 activity). Type of assay: cell-based, human. Here is the method: as §2, with “LDN193189.” for “LDN193189. PP2 stage: 6 days in S3 medium +50 ng/ml KGF +0.25 uM Sant1 +0.1 μM Retinoic acid (RA) +10 μM Y27632 +5 ng/ml ActivinA.”
Cells were then resuspended in perm/wash with primary antibodies and incubated at 4° C. overnight. […] Cells were then washed 3 times in perm/wash solution and finally resuspended in 500-700 μl, filtered through a 40 μm nylon mash into flow cytometry tubes (BD Falcon; 352235), and analyzed using the LSR-II flow cytometer (BD Biosciences) with at least 30,000 events recorded. […]

Assay [5] concerns mTORC1. Put plainly: p-S6 immunostaining of pancreatic islets of fasted mice injected with nutrients. Type of assay: in vivo, mouse. The settings on record: overnight fasted mice, injection. Here is the method: To assess this, mTORC1 activation was analyzed in the islets of fasted mice upon injection with glucose and/or leucine. […] Alpha cells activate the pathway in the presence of amino acids (likely supplied from autophagy) and the absence of glucose (e.g., during fasting), whereas beta cells activate mTORC1 merely following glucose consumption and insulin secretion during feeding (FIG. 1H).
To test the nutrient sensitivity of mTORC1 in beta cells in vivo, glucose was injected into neonates and their pancreata was dissected.
Tissue processing for tissue section staining was performed as previously described {Nir, 2007 #3232}, using the following antibodies: insulin (DakoCytomation), Ki67 (NeoMarkers RM9106S0), Pdx1 (gift from Christopher Wright, Vanderbilt University), Nkx6.1 (β-cell Biology Consortium), Chga (Novus NB120-15160) human p16 (Abcam ab108349 and BD Pharmingen 551153), p21 (Santa Cruz Biotechnology sc-397), Lamp2a (Abcam ab18528), pS6 (Cell Signaling 5364), E-cadherin (BD Pharmingen 610182), Atp5a (Abcam ab14748), Cox17 (Novus NBP1-19696) and Ndufb (Sigma-Aldrich HPA005640). Secondary antibodies were from Jackson ImmunoResearch Laboratories. […] To calculate cell size on tissue sections, the circumference of E-Cadherin-stained cells was determined using Image J Software. >100 cells from 6 mice were scored for each group. […]

Assay [6] has as its system mTORC1. Put plainly: p-S6 immunostaining of kidney capsule transplants of SC-beta cells in mice injected with nutrients. In kind it is in vivo. The settings on record: two months after transplantation, fasted recipient mouse, injection. The procedure:
Having insight into the nutrient sensitivity of mTORC1 in immature and mature beta cells, the next question was whether changing the environment of the SC-beta cells would change mTORC1 sensitivity to nutrients and its dynamics (FIG. 3A). SC-beta cells were collected from the final stage of the differentiation protocol and transplanted into mice for a period of two months, until reaching a stable functional state. […] All animal experiments were performed in accordance with Harvard University […] Animal Care and Use Committee regulations. Cell transplantations into immunodeficient SCID-Beige mice (Jackson Laboratory) were conducted as described previously with minor modifications. SC-beta cell clusters were resuspended in RPMI-1640 medium (Life Technologies; 11875-093), aliquoted into PCR tubes and kept on ice until loading into a catheter for cell delivery under the mouse kidney capsule. Mice were anesthetized with 0.5 ml/25 g 1.25% Avertin/body weight, and the left […] kidney site was shaved and disinfected with betadine and alcohol. A 1 cm incision was made to expose the kidney, followed by insertion of the catheter needle and injection of the cell clusters. […] Wound clips were removed 14 days post-surgery and mice were monitored twice a week. […]

“Also recorded” adds a separate entry of the source.

As to Exendin-4, the results for the “effect on mTORC1 activity (p-S6) in mature beta cells” value (“effect … (p-S6) in mature beta cells” below) in assay [1] and in assay [1] (listed as exendin4) were “increased” and “strongly activate mTORC1 in beta cells”, respectively. Also, the “effect on mTORC1 activity suppressed by diazoxide in beta cells” value in assay [1] (in the presence of diazoxide, glucose and amino acids) is given as “rescued”.

As for insulin, the “effect … (p-S6) in mature beta cells” value in assay [1] is “not mimicked; also recorded: neither stimulation with insulin nor stimulation with insulin and amino acids was able to activate mTORC1 in beta cells”. In addition, the “effect on mTORC1 activation (p-S6) in mouse beta cells” value in assay [2] (mouse islets, 30 minutes incubation in RPMI with indicated nutrients) was “do not affect mTORC1 activation in beta cells”.

Take `CC1=NS(=O)(=O)c2cc(Cl)ccc2N1` [diazoxide]: the “effect … (p-S6) in mature beta cells” value in assay [1] is given as “inhibits mTORC1 activation; also recorded: dramatically reduces mTORC1 activity in beta cells”. Further, the “effect on mTORC1 activation (p-S6) in immature beta cells from mice of indicated age” value in assay [2] (RPMI with glucose and amino acids, 30 minute incubation) was “inhibits mTORC1 activation only at P5; also recorded: does not affect mTORC1 activation”.

As for `CCC(=O)N1CCN(c2ccc(-n3c(=O)ccc4cnc5ccc(-c6cnc7ccccc7c6)cc5c43)cc2C(F)(F)F)CC1` [Torin1], the “GSIS of SC-beta cells grown in indicated conditions” value in assay [3] (low (2.8 mM) and high (16.7 mM) glucose for 1 h) is reported as “increases their GSIS”. Moreover, the “insulin secretion in dynamic GSIS assay” value in assay [3] (nonresponsive SC-beta cells treated for 48 hours, low 2.8 mM, high 16.7 mM glucose) is “induced insulin secretion in response to glucose”. For the same compound, the “effect … (p-S6) in mature beta cells” value in assay [1] is given as “inhibited”. In addition, in assay [4] (glucose-nonresponsive SC-beta cells), the “effect on enhanced mTORC1 signaling (phosphorylation of p-S6) in nonresponsive SC-beta cells” value is reported as “repressed”. Moreover, the “effect on mTORC1 activity (p-S6) of SC-beta cells cultured in a high nutrient environment” value in assay [4] (rich RPMI media) was “repressed”.

Turning to `CC(C)C[C@H](N)C(=O)O` [leucine], the “mTORC1 activation (p-S6) in beta cells of adult mice” value in assay [5] was “not sufficient to activate the pathway”. Further, in assay [6], the “mTORC1 pathway activation (p-S6) in transplanted SC-beta cells” value is “remains inactive”. Besides, in assay [1], the “effect … (p-S6) in mature beta cells” value is on record as “amplifies the response to glucose in beta cells; also recorded: sufficient to fully activate the beta cell mTORC1 pathway in the presence of glucose”.
